Data: patent publication US10357577B2, “Bacterial nitroreductase enzymes and methods relating thereto” (AUCKLAND UNISERVICES LIMITED, priority 2010, dated 2019)

Key:
[1] = system: HCT116 cells expressing E. coli NfsA; type: cell-based, human; conditions: 18 hrs exposure, 5 days regrowth; IC50 of WT versus NTR-expressing cells
Description: (§1) FIGS. 10 (B) and 10 (C) illustrates the results of evaluation of 2-nitroimidazole clinical imaging candidates with E. coli and non-E. coli NTRs. Stably-expressing cells were treated with varying concentration of 2-nitroimidazole prodrugs diluted in αMEM+5% FCS+P/S. Cells were exposed to prodrug for 18 hrs, washed and left to regrow for 5 days. IC50 was determined as the concentration of prodrug required to inhibit cell growth by 50% of untreated controls. IC50 values are mean for ≥2 independent experiments. WT:NTR ratio-ratio of IC50 means from WT cells versus NTR-expressing cell lines.
as §1, with “FIG. 21” for “FIGS. 10 (B) and 10 (C)”, “antiproliferative activity (IC50 value)” for “the results”, “prodrug” for “evaluation of 2-nitroimidazole clinical imaging”, “nitroreductases.” for “NTRs.”, “prodrug” for “2-nitroimidazole prodrugs”, “ratio-interexperimental ratio” for “ratio-ratio”
Isolated NTR gene sequences were subject to PCR and introduced in the bicistronic plasmid F579 via Gateway cloning (Invitrogen) as described by Prosser et al. (2010, Biochem Pharmacol, 79, 678-687). Stably transfected cell lines were created by transfection of the relevant plasmid using FuGENE 6 Transfection Reagent (Roche). Transfected cell populations were maintained by passage in puromycin
Cells were passaged in alpha-Minimal Essential Media, (αMEM; Gibco) supplemented with 5% FBS, (GIBCO NZ) without antibiotics. Cell were passaged for <3 months from frozen stocks and confirmed Mycoplasma free (PCR-ELISA; Roche Diagnostics). Cells were aliquoted into the 96-well plate (100 μL/well) and cells were left to attach (≥4 hrs). […] Plates were read on an ELx 808 Absorbance Microplate Reader (Bio-Tek Instruments). Absorbance was measured at 490 nm and 450 nm (final absorbance 490-450). […]

[2] = system: HCT-116 cells stably expressing E. coli NfsA; assay: Flow cytometry / fluorescent imaging of EF5 retention in vitro; type: cell-based, human
Description: (§2) FIG. 11 illustrates the results of flow cytometry analysis and fluorescent imaging of stably-expressing E. coli NTR cells after in vitro EF5 exposure. 1×10^6 cells were seeded into a 6-well plate and incubated with 20 μM EF5 for 2 hrs at 37° C. Cells were fixed and stained, then analysed by flow cytometry and imaged using a Nikon2000 fluorescent microscope.
(§3) FIG. 13 illustrates the results of flow cytometry analysis of HCT-116 cells stably expressing E. coli NfsA and NfsB after in vitro dose-response to EF5 exposure. 1×10^6 cells were incubated with varying concentrations of EF5 in oxic conditions. Samples were fixed and stained with EF5 antibody Alexa 488 ELK3.51 at 100 μg/ml. Samples were then analysed on a Becton Dickinson FACscan flow cytometer. Values are mean±SEM of two independent experiments. Representative histograms at multiple EF5 dose levels.
(§4) In vitro: 1×10^6 cells were drug treated (EF5 or PIMO) for 1-2 hrs, harvested by trypsinisation, fixed with 4% buffered PFA (pH 7.4, 1 hr). In vivo: Tumour xenograft cells were isolated by enzymatic dissociation (2.5 mg/ml pronase, 1 mg/ml collagenase and 0.2 mg/ml DNAse) and immediately fixed with 4% buffered PFA (pH 7.4, 1 hr). and transferred to 70% ethanol (−20° C., overnight). Cells were resuspended in 1% BSA/PBS and permeabilised with 0.2% Triton X-100 (30 min, RT), blocked in 10% BSA/PBS (30 min, RT) and resuspended in primary antibody for 2 hr (37° C.). The primary antibody was either anti-EF5 mouse monoclonal (ELK 3.51) conjugated with CY5 or Alexa-488 diluted to 100 μg/ml in blocking buffer (according to instruction in Koch C., 2008, Rad Res, 169 (6): 677-688) or Hypoxyprobe-1 (Chemicon Int) mouse monoclonal anti-pimonidazole antibody (clone 4.3.11.3) conjugated with FITC and diluted 1:100 in blocking buffer. Cells were washed in blocking buffer and resuspended in blocking buffer containing 100 μg/ml RNAase and analysed using a Becton Dickinson FACscan flow cytometer (MA, USA) with Cell Quest software using forward scatter and side scatter to gate out cell debris and tumour cells. Integrated fluorescence measurements were recorded for 30,000 single non-debris events.
(§5) In vitro: 3-4 drops of cell suspension prepared for flow cytometry was added to a cytospin chamber containing a poly-I-lysine coated slide and spun for 5 minutes at low acceleration (500 rpm) in a cytospinner. Cells were left to dry and mounted with coverslips using Prolong Gold antifade (Invitrogen) and sealed with nail varnish.

[3] = system: HCT-116 cells stably expressing E. coli NfsB; assay: as above; type: cell-based, human
Description: as §2, §3, §4, §5

[4] = system: HCT-116 cells expressing human cytochrome P450 reductase (CYPOR); assay: Flow cytometry of EF5 retention in vitro; type: cell-based; conditions: increasing EF5 concentrations, oxic, monolayer
Description: as §4

[5] = increasing EF5 concentrations, oxic, monolayer

Structure (SMILES): O=C(Cn1ccnc1[N+](=O)[O-])NCC(F)(F)C(F)(F)F [EF5, 2-(2-nitro-1H-imidazol-1-yl)-N-(2,2,3,3,3-pentafluoropropyl)acetamide]
- WT:NTR ratio (maximum growth inhibitory effect) [1]: 1600 fold
- cellular retention of EF5 (in words) ([2]; 20 μM EF5, 2 h, aerobic): greatest retention
- retention of EF5, dose-response (in words) [2, 5]: clearly superior
- cellular retention of EF5 (in words) ([3]; 20 μM EF5, 2 h, aerobic, compared to parental cells): minor EF5 retention
- activity towards EF5, dose-response (in words) [3, 5]: minimal activity
- activity towards EF5, dose-response (in words) [4]: minimal activity
